Measurements from ChEMBL document CHEMBL1201862, “PubChem BioAssay data set” (2004).
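Tested at 5 concentrations; 48 h exposure; 96-well plates; endpoints linearly interpolated, else capped at highest concentration. GI50 = concentration required for 50% inhibition of growth.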 The source made the active and inactive calls. Rule as the data show it: active = GI50 up to about 1.1 µM and inactive = higher.

Columns and labels:
Assay in all cases: inhibition of tumour cell growth, NCI panel, 48 h
UACC-62 = test system: UACC-62
DU-145 = test system: DU-145
COLO 205 = test system: COLO 205
SNB-19 = test system: SNB-19
A549 = test system: A549
HCT-15 = test system: HCT-15
KM12 = test system: KM12
HOP-92 = test system: HOP-92
ACHN = test system: ACHN
MDA-MB-231 = test system: MDA-MB-231
SF-268 = test system: SF-268
HCT-116 = test system: HCT-116
HT-29 = test system: HT-29
UO-31 = test system: UO-31
NCI-H226 = test system: NCI-H226
SK-OV-3 = test system: SK-OV-3
NCI-H23 = test system: NCI-H23
SK-MEL-5 = test system: SK-MEL-5
A498 = test system: A498

Measured: GI50

c1ccc(-c2sc(-c3cccs3)cc2Cc2cccs2)cc1
inactive: UACC-62 > 10 µM | DU-145 > 10 µM | COLO 205 > 10 µM | SNB-19 > 10 µM | A549 > 10 µM | KM12 > 10 µM | HOP-92 > 10 µM | ACHN > 10 µM | MDA-MB-231 > 10 µM | SF-268 > 10 µM | HCT-116 > 10 µM | HT-29 > 10 µM | UO-31 > 10 µM | NCI-H226 > 10 µM | SK-OV-3 > 10 µM | NCI-H23 > 10 µM | SK-MEL-5 > 10 µM
> 10 µM: HCT-15

O=Cc1cc(C(=O)OCc2ccccc2)n(S(=O)(=O)c2ccccc2)c1
11.1 µM: HCT-15
inactive: UACC-62 11 µM | DU-145 37 µM | COLO 205 26.1 µM | SNB-19 29.2 µM | A549 25.8 µM | KM12 13.4 µM | ACHN 15.6 µM | MDA-MB-231 37.7 µM | SF-268 21.1 µM | HCT-116 7.5 µM | HT-29 21.7 µM | UO-31 12.6 µM | SK-OV-3 21.6 µM | NCI-H23 20.6 µM | SK-MEL-5 4.84 µM

CCOC(=O)N/N=C(\Cc1ccc([N+](=O)[O-])cc1)OCC
inactive: UACC-62 > 100 µM | DU-145 > 100 µM | COLO 205 > 100 µM | SNB-19 > 100 µM | A549 > 100 µM | KM12 > 100 µM | HOP-92 > 100 µM | ACHN > 100 µM | MDA-MB-231 > 100 µM | SF-268 > 100 µM | HCT-116 > 100 µM | HT-29 > 100 µM | UO-31 > 100 µM | SK-OV-3 > 100 µM | NCI-H23 > 100 µM | SK-MEL-5 > 100 µM
> 100 µM: HCT-15

Cc1cc2nc(N3C(=O)/C(=C/c4ccc(N(C)C)cc4)N=C3c3ccccc3)sc2cc1C
32.5 µM: HCT-15
inactive: UACC-62 20.3 µM | DU-145 50.4 µM | COLO 205 18 µM | SNB-19 54.6 µM | A549 33.2 µM | KM12 26 µM | HOP-92 15.2 µM | ACHN 19.9 µM | MDA-MB-231 26 µM | SF-268 40 µM | HCT-116 17 µM | HT-29 18.5 µM | UO-31 24.2 µM | SK-OV-3 > 100 µM | SK-MEL-5 15.2 µM

COc1cc2c3c(n(C)c(=O)c2cc1OC)-c1cc2c(cc1/C3=C\CCCCl)OCO2
> 100 µM: HCT-15
inactive: COLO 205 32.9 µM | SNB-19 44.9 µM | A549 > 100 µM | KM12 23.8 µM | HOP-92 82.2 µM | ACHN 29.7 µM | MDA-MB-231 27.3 µM | SF-268 43.6 µM | A498 25.3 µM | HT-29 39.7 µM | UO-31 53.8 µM | SK-OV-3 23 µM | NCI-H23 19.9 µM | SK-MEL-5 25.6 µM

COc1ccc2c(c1)CN1C(=N2)CSC1c1c(Cl)cccc1[N+](=O)[O-] (configuration not stated)
16.6 µM: HCT-15
inactive: UACC-62 20 µM | COLO 205 11.4 µM | SNB-19 29.9 µM | A549 31.9 µM | KM12 19.5 µM | HOP-92 16.7 µM | ACHN 30.5 µM | MDA-MB-231 16.4 µM | SF-268 20 µM | HCT-116 15.6 µM | HT-29 17.9 µM | UO-31 21.3 µM | NCI-H226 11.9 µM | SK-OV-3 39.7 µM | NCI-H23 15.8 µM | SK-MEL-5 12.8 µM

CC12CCCC(O)C1CCC1=CC3(CCC12)SCCS3 (configuration not stated)
inactive: UACC-62 > 10 µM | DU-145 > 10 µM | COLO 205 > 10 µM | SNB-19 > 10 µM | A549 > 10 µM | KM12 > 10 µM | HOP-92 > 10 µM | ACHN > 10 µM | MDA-MB-231 > 10 µM | SF-268 > 10 µM | HT-29 > 10 µM | SK-OV-3 > 10 µM | NCI-H23 > 10 µM | SK-MEL-5 > 10 µM
> 10 µM: HCT-15

COc1ccc(C2SC(=N)Nc3c2c(C)nn3C(=O)c2ccc(Cl)cc2)cc1 (configuration not stated)
inactive: UACC-62 > 10 µM | DU-145 > 10 µM | COLO 205 > 10 µM | SNB-19 > 10 µM | A549 > 10 µM | KM12 > 10 µM | HOP-92 > 10 µM | ACHN > 10 µM | MDA-MB-231 > 10 µM | SF-268 > 10 µM | HCT-116 > 10 µM | HT-29 > 10 µM | NCI-H226 > 10 µM | SK-OV-3 > 10 µM | NCI-H23 > 10 µM | SK-MEL-5 > 10 µM
> 10 µM: HCT-15

COC(=O)C1(CCCCl)CCCN1C(=O)OC(C)(C)C (configuration not stated)
inactive: UACC-62 > 100 µM | DU-145 > 100 µM | COLO 205 > 100 µM | SNB-19 > 100 µM | A549 > 100 µM | KM12 > 100 µM | ACHN > 100 µM | MDA-MB-231 > 100 µM | SF-268 > 100 µM | HCT-116 > 100 µM | HT-29 > 100 µM | UO-31 > 100 µM | NCI-H226 75.5 µM | SK-OV-3 > 100 µM | NCI-H23 > 100 µM | SK-MEL-5 > 100 µM
> 100 µM: HCT-15

CCOC(=O)c1nc2ccc(C(F)(F)F)cc2nc1NCc1ccc(OC)cc1
inactive: UACC-62 > 100 µM | COLO 205 93.8 µM | SNB-19 > 100 µM | A549 49.4 µM | KM12 36 µM | HOP-92 47.5 µM | ACHN 92.5 µM | MDA-MB-231 > 100 µM | SF-268 > 100 µM | HCT-116 53.1 µM | A498 58.6 µM | HT-29 55.8 µM | UO-31 > 100 µM | NCI-H226 > 100 µM | SK-OV-3 > 100 µM | NCI-H23 84.1 µM | SK-MEL-5 58.2 µM
82.8 µM: HCT-15

COc1ccc(-c2cc3c(c4cc(OC)ccc24)C(=O)OC3=O)cc1
inactive: UACC-62 > 100 µM | DU-145 > 100 µM | COLO 205 > 100 µM | SNB-19 > 100 µM | A549 > 100 µM | KM12 > 100 µM | HOP-92 87.3 µM | ACHN > 100 µM | MDA-MB-231 > 100 µM | SF-268 > 100 µM | HCT-116 > 100 µM | HT-29 > 100 µM | UO-31 95.5 µM | NCI-H226 > 100 µM | SK-OV-3 > 100 µM | NCI-H23 > 100 µM | SK-MEL-5 > 100 µM
> 100 µM: HCT-15

CC1(C)c2ccccc2C(=O)C12CCC(=O)CC2
inactive: UACC-62 > 100 µM | DU-145 > 100 µM | COLO 205 > 100 µM | SNB-19 > 100 µM | A549 > 100 µM | KM12 > 100 µM | ACHN > 100 µM | MDA-MB-231 > 100 µM | SF-268 > 100 µM | HCT-116 > 100 µM | HT-29 > 100 µM | UO-31 33.7 µM | NCI-H226 > 100 µM | SK-OV-3 > 100 µM | NCI-H23 > 100 µM | SK-MEL-5 > 10 µM
> 100 µM: HCT-15

COc1ccc(C2=C(Cl)C(=O)O/C2=C\c2ccc(OC)c(Br)c2)cc1Cl
55.2 µM: HCT-15
inactive: UACC-62 22.8 µM | DU-145 74.6 µM | COLO 205 > 100 µM | SNB-19 31.8 µM | A549 33.3 µM | KM12 > 100 µM | HOP-92 24 µM | ACHN 16.3 µM | SF-268 16.5 µM | HCT-116 23.5 µM | A498 17.3 µM | HT-29 > 100 µM | UO-31 53.1 µM | SK-OV-3 37.1 µM | NCI-H23 16.3 µM | SK-MEL-5 > 100 µM

C1CSCCSS[C@@H]2CCCCC2SC1 (some centres not stated)
> 100 µM: HCT-15
inactive: UACC-62 > 100 µM | DU-145 > 100 µM | COLO 205 > 100 µM | SNB-19 > 100 µM | A549 > 100 µM | KM12 > 100 µM | HOP-92 29.2 µM | MDA-MB-231 > 100 µM | SF-268 > 100 µM | HCT-116 81.8 µM | HT-29 > 100 µM | UO-31 78.9 µM | SK-OV-3 > 100 µM | NCI-H23 > 100 µM | SK-MEL-5 > 100 µM

CCOC(=O)CCC(C(=O)OCC)n1nnc2cc(Nc3c(C)[n+]([O-])c4cc(Cl)ccc4[n+]3[O-])ccc21 (configuration not stated)
inactive: UACC-62 55.7 µM | DU-145 > 100 µM | COLO 205 41.7 µM | SNB-19 > 100 µM | A549 > 100 µM | KM12 > 100 µM | HOP-92 67.9 µM | ACHN 46.2 µM | SF-268 38.4 µM | HCT-116 47.9 µM | A498 > 100 µM | HT-29 76 µM | UO-31 72.6 µM | NCI-H226 32.9 µM | SK-OV-3 > 100 µM | NCI-H23 60.5 µM | SK-MEL-5 49.8 µM
43.9 µM: HCT-15

COc1ccc(OC)c(NC(=O)C(=O)Nn2c(S)nc3ccccc3c2=O)c1
> 100 µM: HCT-15
inactive: UACC-62 > 100 µM | SNB-19 > 100 µM | A549 > 100 µM | KM12 > 100 µM | HOP-92 > 100 µM | ACHN > 100 µM | MDA-MB-231 > 100 µM | SF-268 > 100 µM | HCT-116 > 100 µM | A498 > 100 µM | HT-29 > 100 µM | UO-31 > 100 µM | NCI-H226 > 100 µM | SK-OV-3 > 100 µM | NCI-H23 > 100 µM | SK-MEL-5 > 100 µM

O=c1oc2ccccc2c(Nc2ccc3c(c2)S(=O)(=O)c2ccccc2O3)c1[N+](=O)[O-]
inactive: UACC-62 14.5 µM | DU-145 27.6 µM | COLO 205 22.3 µM | SNB-19 26.9 µM | A549 28.1 µM | KM12 28.9 µM | HOP-92 20 µM | ACHN 22.1 µM | MDA-MB-231 24.5 µM | SF-268 33.8 µM | HCT-116 23.7 µM | HT-29 34.5 µM | UO-31 33.4 µM | NCI-H226 25.7 µM | SK-OV-3 24 µM | NCI-H23 23.5 µM | SK-MEL-5 20.1 µM
25.8 µM: HCT-15
